Assay results: paper PMC7544826 (Communications Biology, 2020)

What was measured:
[1] = in vivo; cited from earlier work
Notum [2] = biological target: T1, Notum (Homo sapiens, UniProt Q6P988, C330S); test: Thermal shift assay (SYPRO Orange) of Notum; settings: for Thermoflour melting curve fluorescence of Notum: Fig 2c
T1 sequence (Q6P988 81-451 C330S): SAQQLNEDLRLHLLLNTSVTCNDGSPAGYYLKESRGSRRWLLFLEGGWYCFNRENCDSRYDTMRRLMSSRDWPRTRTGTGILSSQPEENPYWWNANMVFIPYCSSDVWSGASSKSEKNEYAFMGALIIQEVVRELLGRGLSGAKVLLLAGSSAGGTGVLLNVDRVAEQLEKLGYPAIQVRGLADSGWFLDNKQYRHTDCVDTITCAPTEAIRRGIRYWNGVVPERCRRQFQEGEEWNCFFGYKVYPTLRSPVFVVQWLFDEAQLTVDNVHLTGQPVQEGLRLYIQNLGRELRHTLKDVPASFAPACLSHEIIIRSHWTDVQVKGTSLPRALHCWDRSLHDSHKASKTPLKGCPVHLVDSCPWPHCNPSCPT
Description: Reference wells, i.e. solutions without compounds were used to compare the melting temperature (Tm). The experiments were performed in triplicate.

brain = settings: at plasma concentration 150 µM; cited from earlier work
Notum [3] = biological target: T1, Notum; test: SPR equilibrium binding to biotinylated Notum on streptavidin chip; design: The human Notum enzyme core comprising amino acids S81–T451 with a C330S mutation; made in house; dialyzed conditioned medium used without purification; settings: Fig 2a

## Cn1c(=O)c2c(ncn2C)n(C)c1=O [caffeine, 1,3,7-trimethylxanthine]
[1]
  Plasma concentration at therapeutic use: ≤ 150 µM
Notum [2]
  Melting temperature (Tm) of Notum: 66.4 °C
Notum [2]; 2-fold dilution series 1-1000 µM, dose-dependent
  Concentration from which the Tm of Notum starts to increase: 32 µM
Notum [2]; compound 500 µM, Temperature 24.5
  Thermoflour melting curve fluorescence of Notum: 709.927
Notum [2]; compound 500 µM, Temperature 25.5
  Thermoflour melting curve fluorescence of Notum: 611.276
Notum [2]; compound 500 µM, Temperature 26.5
  Thermoflour melting curve fluorescence of Notum: 506.395
Notum [2]; compound 500 µM, Temperature 27.5
  Thermoflour melting curve fluorescence of Notum: 407.771
Notum [2]; compound 500 µM, Temperature 28.5
  Thermoflour melting curve fluorescence of Notum: 329.046
Notum [2]; compound 500 µM, Temperature 29.5
  Thermoflour melting curve fluorescence of Notum: 252.252
Notum [2]; compound 500 µM, Temperature 30.5
  Thermoflour melting curve fluorescence of Notum: 185.878
Notum [2]; compound 500 µM, Temperature 31.5
  Thermoflour melting curve fluorescence of Notum: 116.312
Notum [2]; compound 500 µM, Temperature 32.5
  Thermoflour melting curve fluorescence of Notum: 36.8288
Notum [2]; compound 500 µM, Temperature 33.5
  Thermoflour melting curve fluorescence of Notum: -33.9223
Notum [2]; compound 500 µM, Temperature 34.5
  Thermoflour melting curve fluorescence of Notum: -98.3184
Notum [2]; compound 500 µM, Temperature 35.5
  Thermoflour melting curve fluorescence of Notum: -160.078
Notum [2]; compound 500 µM, Temperature 36.5
  Thermoflour melting curve fluorescence of Notum: -227.439
Notum [2]; compound 500 µM, Temperature 37.5
  Thermoflour melting curve fluorescence of Notum: -299.113
Notum [2]; compound 500 µM, Temperature 38.5
  Thermoflour melting curve fluorescence of Notum: -356.595
Notum [2]; compound 500 µM, Temperature 39.5
  Thermoflour melting curve fluorescence of Notum: -384.234
Notum [2]; compound 500 µM, Temperature 40.5
  Thermoflour melting curve fluorescence of Notum: -401.667
Notum [2]; compound 500 µM, Temperature 41.5
  Thermoflour melting curve fluorescence of Notum: -422.587
Notum [2]; compound 500 µM, Temperature 42.5
  Thermoflour melting curve fluorescence of Notum: -436.447
Notum [2]; compound 500 µM, Temperature 43.5
  Thermoflour melting curve fluorescence of Notum: -433.953
Notum [2]; compound 500 µM, Temperature 44.5
  Thermoflour melting curve fluorescence of Notum: -407.23
Notum [2]; compound 500 µM, Temperature 45.5
  Thermoflour melting curve fluorescence of Notum: -370.506
Notum [2]; compound 500 µM, Temperature 46.5
  Thermoflour melting curve fluorescence of Notum: -329.743
Notum [2]; compound 500 µM, Temperature 47.5
  Thermoflour melting curve fluorescence of Notum: -279.561
Notum [2]; compound 500 µM, Temperature 48.5
  Thermoflour melting curve fluorescence of Notum: -224.386
Notum [2]; compound 500 µM, Temperature 49.5
  Thermoflour melting curve fluorescence of Notum: -154.955
Notum [2]; compound 500 µM, Temperature 50.5
  Thermoflour melting curve fluorescence of Notum: -68.5872
Notum [2]; compound 500 µM, Temperature 51.5
  Thermoflour melting curve fluorescence of Notum: 21.0565
Notum [2]; compound 500 µM, Temperature 52.5
  Thermoflour melting curve fluorescence of Notum: 104.977
Notum [2]; compound 500 µM, Temperature 53.5
  Thermoflour melting curve fluorescence of Notum: 203.138
Notum [2]; compound 500 µM, Temperature 54.5
  Thermoflour melting curve fluorescence of Notum: 335.417
Notum [2]; compound 500 µM, Temperature 55.5
  Thermoflour melting curve fluorescence of Notum: 489.845
Notum [2]; compound 500 µM, Temperature 56.5
  Thermoflour melting curve fluorescence of Notum: 650.176
Notum [2]; compound 500 µM, Temperature 57.5
  Thermoflour melting curve fluorescence of Notum: 838.955
Notum [2]; compound 500 µM, Temperature 58.5
  Thermoflour melting curve fluorescence of Notum: 1115.22
Notum [2]; compound 500 µM, Temperature 59.5
  Thermoflour melting curve fluorescence of Notum: 1497.71
Notum [2]; compound 500 µM, Temperature 60.5
  Thermoflour melting curve fluorescence of Notum: 2046.51
Notum [2]; compound 500 µM, Temperature 61.5
  Thermoflour melting curve fluorescence of Notum: 2842.67
Notum [2]; compound 500 µM, Temperature 62.5
  Thermoflour melting curve fluorescence of Notum: 4016.35
Notum [2]; compound 500 µM, Temperature 63.5
  Thermoflour melting curve fluorescence of Notum: 5616.14
Notum [2]; compound 500 µM, Temperature 64.5
  Thermoflour melting curve fluorescence of Notum: 7625.37
Notum [2]; compound 500 µM, Temperature 65.5
  Thermoflour melting curve fluorescence of Notum: 9844.37
Notum [2]; compound 500 µM, Temperature 66.5
  Thermoflour melting curve fluorescence of Notum: 11980.7
Notum [2]; compound 500 µM, Temperature 67.5
  Thermoflour melting curve fluorescence of Notum: 13878
Notum [2]; compound 500 µM, Temperature 68.5
  Thermoflour melting curve fluorescence of Notum: 15429.9
Notum [2]; compound 500 µM, Temperature 69.5
  Thermoflour melting curve fluorescence of Notum: 16655.6
Notum [2]; compound 500 µM, Temperature 70.5
  Thermoflour melting curve fluorescence of Notum: 17623.3
Notum [2]; compound 500 µM, Temperature 71.5
  Thermoflour melting curve fluorescence of Notum: 18396.4
Notum [2]; compound 500 µM, Temperature 72.5
  Thermoflour melting curve fluorescence of Notum: 18998.9
Notum [2]; compound 500 µM, Temperature 73.5
  Thermoflour melting curve fluorescence of Notum: 19494.1
Notum [2]; compound 500 µM, Temperature 74.5
  Thermoflour melting curve fluorescence of Notum: 19890
Notum [2]; compound 500 µM, Temperature 75.5
  Thermoflour melting curve fluorescence of Notum: 20222.9
Notum [2]; compound 500 µM, Temperature 76.5
  Thermoflour melting curve fluorescence of Notum: 20511.4
Notum [2]; compound 500 µM, Temperature 77.5
  Thermoflour melting curve fluorescence of Notum: 20720.5
Notum [2]; compound 500 µM, Temperature 78.5
  Thermoflour melting curve fluorescence of Notum: 20881
Notum [2]; compound 500 µM, Temperature 79.5
  Thermoflour melting curve fluorescence of Notum: 21035.4
Notum [2]; compound 500 µM, Temperature 80.5
  Thermoflour melting curve fluorescence of Notum: 21171.7
Notum [2]; compound 500 µM, Temperature 81.5
  Thermoflour melting curve fluorescence of Notum: 21266.6
Notum [2]; compound 500 µM, Temperature 82.5
  Thermoflour melting curve fluorescence of Notum: 21332.1
Notum [2]; compound 500 µM, Temperature 83.5
  Thermoflour melting curve fluorescence of Notum: 21375.7
Notum [2]; compound 500 µM, Temperature 84.5
  Thermoflour melting curve fluorescence of Notum: 21418.3
Notum [2]; compound 500 µM, Temperature 85.5
  Thermoflour melting curve fluorescence of Notum: 21484.5
Notum [2]; compound 500 µM, Temperature 86.5
  Thermoflour melting curve fluorescence of Notum: 21557.9
Notum [2]; compound 500 µM, Temperature 87.5
  Thermoflour melting curve fluorescence of Notum: 21630
Notum [2]; compound 500 µM, Temperature 88.5
  Thermoflour melting curve fluorescence of Notum: 21668.9
Notum [2]; compound 500 µM, Temperature 89.5
  Thermoflour melting curve fluorescence of Notum: 21631
Notum [2]; compound 500 µM, Temperature 90.5
  Thermoflour melting curve fluorescence of Notum: 21594.2
Notum [2]; compound 500 µM, Temperature 91.5
  Thermoflour melting curve fluorescence of Notum: 21585.2
Notum [2]; compound 500 µM, Temperature 92.5
  Thermoflour melting curve fluorescence of Notum: 21573.1
Notum [2]; compound 500 µM, Temperature 93.5
  Thermoflour melting curve fluorescence of Notum: 21559.5
Notum [2]; compound 500 µM, Temperature 94.5
  Thermoflour melting curve fluorescence of Notum: 21527.2
Notum [2]; compound 500 µM, Temperature 95.5
  Thermoflour melting curve fluorescence of Notum: 21485.4
Notum [2]; compound 500 µM, Temperature 96.5
  Thermoflour melting curve fluorescence of Notum: 21486.2
Notum [2]; compound 500 µM, Temperature 97.5
  Thermoflour melting curve fluorescence of Notum: 21505.1
Notum [2]; compound 500 µM, versus Notum without compounds
  ∆Tm of Notum: 2.8 °C
brain
  Adverse effects on the brain: does not appear to have adverse effects on the brain
Notum [3]; caffeine conc. 2.861e-8 (unit not given)
  SPR Response: 1.14
Notum [3]; caffeine conc. 5.722e-8 (unit not given)
  SPR Response: 2.29
Notum [3]; caffeine conc. 1.144e-7 (unit not given)
  SPR Response: 3.61
Notum [3]; caffeine conc. 2.289e-7 (unit not given)
  SPR Response: 4.16
Notum [3]; caffeine conc. 4.578e-7 (unit not given)
  SPR Response: 4.74
Notum [3]; caffeine conc. 9.155e-7 (unit not given)
  SPR Response: 5.58
Notum [3]; caffeine conc. 1.831e-6 (unit not given)
  SPR Response: 6.88
Notum [3]; caffeine conc. 3.662e-6 (unit not given)
  SPR Response: 9.64
Notum [3]; caffeine conc. 7.324e-6 (unit not given)
  SPR Response: 12.15
Notum [3]; caffeine conc. 1.465e-5 (unit not given)
  SPR Response: 16.8
Notum [3]; caffeine conc. 2.93e-5 (unit not given)
  SPR Response: 23.59
Notum [3]; caffeine conc. 5.859e-5 (unit not given)
  SPR Response: 31.69
Notum [3]; caffeine conc. 0.0001172 (unit not given)
  SPR Response: 41.28
Notum [3]; caffeine conc. 0.0002344 (unit not given)
  SPR Response: 50.77
Notum [3]; caffeine conc. 0.0004687 (unit not given)
  SPR Response: 61.29
Notum [3]; caffeine conc. 0.0009375 (unit not given)
  SPR Response: 71.68
Notum [3]; caffeine conc. 0.001875 (unit not given)
  SPR Response: 81.69
